Assay results taken from PubChem BioAssay (NCI).
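Values below derive from 48-hour exposures of cells grown in 96-well plates, with endpoints linearly interpolated between the two concentrations bracketing the appropriate inhibition level. Here, GI50 denotes the concentration required for 50% inhibition of growth. TGI: total growth inhibition.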

Legend:
Experiment in all cases: NCI anticancer screen, dose series, 48 h
[1] = test system: 786-0 renal
[2] = test system: A498 renal
[3] = test system: A549 NSCLC
[4] = test system: ACHN renal
[5] = test system: BT-549 breast
[6] = test system: CAKI-1 renal
[7] = test system: CCRF-CEM leukemia
[8] = test system: COLO 205 colon
[9] = test system: DU-145 prostate
[10] = test system: EKVX NSCLC
[11] = test system: HCC-2998 colon
[12] = test system: HCT-116 colon
[13] = test system: HCT-15 colon
[14] = test system: HL-60(TB) leukemia
[15] = test system: HOP-62 NSCLC
[16] = test system: HOP-92 NSCLC
[17] = test system: HS 578T breast
[18] = test system: HT29 colon
[19] = test system: IGROV1 ovarian
[20] = test system: K-562 leukemia
[21] = test system: KM12 colon
[22] = test system: LOX IMVI melanoma
[23] = test system: M14 melanoma
[24] = test system: MALME-3M melanoma
[25] = test system: MCF7 breast
[26] = test system: MDA-MB-231 breast
[27] = test system: MDA-MB-435
[28] = test system: MOLT-4 leukemia
[29] = test system: NCI-H226 lung

## C/C(=N/NC(N)=S)c1ccc(Nc2nc(SCC(C)C)nc(-c3ccc(F)cc3)c2C#N)cc1
[1]
  GI50: 2.07 µM
  TGI: 13.8 µM
[2]
  GI50: 2.99 µM
  TGI: 8.8 µM
[3]
  GI50: 0.488 µM
  TGI: 10.9 µM
[4]
  GI50: 0.423 µM
  TGI: 11.4 µM
[5]
  GI50: 4.04 µM
  TGI: 18.4 µM
[6]
  GI50: 1.65 µM
  TGI: 7.49 µM
[7]
  GI50: 5.83 µM
  TGI: > 100 µM
[8]
  GI50: 1.18 µM
  TGI: 22.1 µM
[9]
  GI50: 1.55 µM
  TGI: 20.3 µM
[10]
  GI50: 4.53 µM
  TGI: 25.4 µM
[11]
  GI50: 5.69 µM
  TGI: 31.4 µM
[12]
  GI50: 0.539 µM
  TGI: 13.6 µM
[13]
  GI50: 0.928 µM
  TGI: > 100 µM
[14]
  GI50: 17.9 µM
  TGI: > 100 µM
[15]
  GI50: 3.04 µM
  TGI: 13.6 µM
[16]
  GI50: 1.12 µM
  TGI: 5.01 µM
[17]
  GI50: 3.08 µM
  TGI: 54.1 µM
[18]
  GI50: 1.28 µM
  TGI: 15.6 µM
[19]
  GI50: 4.82 µM
  TGI: 21.4 µM
[20]
  GI50: 1.41 µM
  TGI: > 100 µM
[21]
  GI50: 12.7 µM
  TGI: > 100 µM
[22]
  GI50: 1.13 µM
  TGI: 10.4 µM
[23]
  GI50: 4.41 µM
  TGI: 26 µM
[24]
  GI50: 1.88 µM
  TGI: 11.6 µM
[25]
  GI50: 0.696 µM
  TGI: 28.8 µM
[26]
  GI50: 5.91 µM
  TGI: 25.9 µM
[27]
  GI50: 2.14 µM
  TGI: 17.4 µM
[28]
  GI50: 2.07 µM
  TGI: 79.2 µM
[29]
  GI50: 1.46 µM
  TGI: 14.1 µM
